≈ marks a conversion by molar mass, not a printed value.
Key:
S. aureus = assay: MIC, broth microdilution, S. aureus; format: cell-based; settings: Staphylococcus aureus
Experimental: (§1) Bacteria were cultured in cation-adjusted Mueller Hinton Broth (for strains in Tables 1-3) or Brain Heart Infusion broth (for Enterococcus faecium) or Tryptic Soy Broth (all other bacteria) in a 96-well plate at 37° C. for at least 20 hours. The MIC was classified as the lowest concentration where no visual growth of bacteria was observed. The minimum bactericidal concentration (MBC) was tested by spotting 4 μL from wells with no growth onto Tryptic Soy Agar (TSA) plates. Plates were incubated at 37° C. for at least 18 hours before recording the MBC.

MRSA ATCC 33592 = assay: MIC, broth microdilution, MRSA ATCC 33592; format: cell-based, methicillin-resistant S. aureus; settings: Staphylococcus aureus
Experimental: All MRSA isolates were acquired from BEI Resources. The remaining bacteria were purchased from the American Type Culture Collection (ATCC).
as §1

E. faecalis ATCC 29212 = assay: MIC, broth microdilution, E. faecalis ATCC 29212; format: cell-based; settings: Enterococcus faecalis, ATCC29212
Experimental: as §1

VRE ATCC 51575 = assay: MIC, broth microdilution, VRE ATCC 51575; format: cell-based; settings: Enterococcus
Experimental: as §1

[1] = system: L. monocytogenes ATCC 19115; assay: MIC, broth microdilution, L. monocytogenes ATCC 19115; format: cell-based; settings: Listeria monocytogenes, ATCC19115
Experimental: as §1

[2] = system: C. difficile NR-13432 (isolate 6); assay: MIC against C. difficile NR-13432 (isolate 6); format: cell-based; settings: Clostridioides difficile; read-out: MIC C. difficile NR-13432 (isolate 6)
Experimental: as §1

[3] = system: C. difficile NR-13435 (isolate 9); assay: MIC against C. difficile NR-13435 (isolate 9); format: cell-based; settings: Clostridioides difficile; read-out: MIC C. difficile NR-13435 (isolate 9)
Experimental: as §1

[4] = system: C. difficile NR-32883 (P2); assay: MIC against C. difficile NR-32883 (P2); format: cell-based; settings: Clostridioides difficile; read-out: MIC C. difficile NR-32883 (P2)
Experimental: as §1

[5] = system: C. difficile NR-32891 (P13); assay: MIC against C. difficile NR-32891 (P13); format: cell-based; settings: Clostridioides difficile; read-out: MIC C. difficile NR-32891 (P13)
Experimental: as §1

[6] = system: C. difficile NR-32895 (P19); assay: MIC against C. difficile NR-32895 (P19); format: cell-based; settings: Clostridioides difficile; read-out: MIC C. difficile NR-32895 (P19)
Experimental: as §1

[7] = system: C. difficile NR-32904 (P30); assay: MIC against C. difficile NR-32904 (P30); format: cell-based; settings: Clostridioides difficile; read-out: MIC C. difficile NR-32904 (P30)
Experimental: as §1

C. difficile ATCC 43255 = assay: MIC against C. difficile ATCC 43255; format: cell-based; settings: Clostridioides difficile, ATCC43255; read-out: MIC C. difficile ATCC 43255
Experimental: as §1

[8] = system: C. difficile ATCC BAA 1801; assay: MIC against C. difficile ATCC BAA 1801; format: cell-based; settings: Clostridioides difficile, BAA1801; read-out: MIC C. difficile ATCC BAA 1801
Experimental: as §1

MRSA USA300 cells = assay: Time-kill assay; format: cell-based; settings: for Δlog2 CFU/mL: MRSA USA300, 3× MIC or 6× MIC, up to 24 hours
Experimental: The time-kill analysis was performed as previously described^29. […] Aliquots (100 μL) were collected from each treatment after 0, 2, 4, 8, 12, and 24 hours of incubation at 37° C. and subsequently serially diluted in phosphate-buffered saline (PBS). Bacteria were then transferred to TSA plates and incubated at 37° C. for 18-20 hours before viable CFU/mL was determined (see FIG. 2).

[9] = system: Neisseria gonorrhea strain 181; assay: MIC against Neisseria gonorrhea strain 181; format: cell-based
Experimental: as §1

| Structure (SMILES) | MIC (S. aureus) | MIC (MRSA ATCC 33592) | MIC (E. faecalis ATCC 29212) | MIC (VRE ATCC 51575) | MIC [1] | MIC [2] | MIC [3] | MIC [4] | MIC [5] | MIC [6] | MIC [7] | MIC (C. difficile ATCC 43255) | MIC [8] | Bactericidal/Bacteriostatic (MRSA USA300 cells) | Δlog2 CFU/mL (MRSA USA300 cells) | MIC [9] |
| --- | --- | --- | --- | --- | --- | --- | --- | --- | --- | --- | --- | --- | --- | --- | --- | --- |
| O=C(Nc1nnc(-c2cccs2)o1)c1ccc(S(F)(F)(F)(F)F)cc1 [HSGN-144, 4-(pentafluoro-sulfanyl)-N-(5-(thiophen-2-yl)-1,3,4-oxadiazol-2-yl)benzamide] | 0.25 µg/mL (≈ 0.629 µM) | 0.5 µg/mL (≈ 1.26 µM) | 2 µg/mL (≈ 5.03 µM) | 2 µg/mL (≈ 5.03 µM) | 1 µg/mL (≈ 2.52 µM) | 0.015 µg/mL (≈ 0.0378 µM) | 0.015 µg/mL (≈ 0.0378 µM) | 0.003 µg/mL (≈ 0.00755 µM) | 0.125 µg/mL (≈ 0.315 µM) | 0.06 µg/mL (≈ 0.151 µM) | 0.125 µg/mL (≈ 0.315 µM) | 0.125 µg/mL (≈ 0.315 µM) | 0.03 µg/mL (≈ 0.0755 µM) | Bactericidal | 3.96 | – |
| O=C(Nc1nnc(-c2cccs2)o1)c1ccc(SC(F)(F)F)cc1 [HSGN-148, N-(5-(thiophen-2-yl)-1,3,4-oxadiazol-2-yl)-4-((trifluoromethyl)thio)benzamide] | 1 µg/mL (≈ 2.69 µM) | 0.5 µg/mL (≈ 1.35 µM) | 4 µg/mL (≈ 10.8 µM) | 4 µg/mL (≈ 10.8 µM) | 2 µg/mL (≈ 5.39 µM) | 0.5 µg/mL (≈ 1.35 µM) | 0.5 µg/mL (≈ 1.35 µM) | 0.5 µg/mL (≈ 1.35 µM) | 0.5 µg/mL (≈ 1.35 µM) | 0.5 µg/mL (≈ 1.35 µM) | 0.5 µg/mL (≈ 1.35 µM) | 0.5 µg/mL (≈ 1.35 µM) | 0.5 µg/mL (≈ 1.35 µM) | Bactericidal | 4.2 | 0.06 µg/mL (≈ 0.162 µM) |
| O=C(Nc1nnc(-c2cccs2)o1)c1ccc(OC(F)(F)F)cc1 [HSGN-145, N-(5-(thiophen-2-yl)-1,3,4-oxadiazol-2-yl)-4-(trifluoromethoxy)benzamide] | 1 µg/mL (≈ 2.81 µM) | 1 µg/mL (≈ 2.81 µM) | > 8 µg/mL | 8 µg/mL (≈ 22.5 µM) | 8 µg/mL (≈ 22.5 µM) | 0.5 µg/mL (≈ 1.41 µM) | 0.5 µg/mL (≈ 1.41 µM) | 1 µg/mL (≈ 2.81 µM) | 2 µg/mL (≈ 5.63 µM) | 1 µg/mL (≈ 2.81 µM) | 1 µg/mL (≈ 2.81 µM) | 0.5 µg/mL (≈ 1.41 µM) | 0.5 µg/mL (≈ 1.41 µM) | Bacteriostatic | 0.69 | – |
| O=C(Nc1nnc(-c2ccc(C(F)(F)F)cc2)o1)c1ccc(SC(F)(F)F)cc1 [HSGN-203, N-(5-(4-(trifluoromethyl)phenyl)-1,3,4-oxadiazol-2-yl)-4-((trifluoromethyl)thio)benzamide] | 0.25 µg/mL (≈ 0.577 µM) | 0.25 µg/mL (≈ 0.577 µM) | 1 µg/mL (≈ 2.31 µM) | 0.5 µg/mL (≈ 1.15 µM) | 0.5 µg/mL (≈ 1.15 µM) | 0.125 µg/mL (≈ 0.288 µM) | 0.06 µg/mL (≈ 0.138 µM) | 0.06 µg/mL (≈ 0.138 µM) | 0.125 µg/mL (≈ 0.288 µM) | 0.06 µg/mL (≈ 0.138 µM) | 0.125 µg/mL (≈ 0.288 µM) | 0.25 µg/mL (≈ 0.577 µM) | 0.125 µg/mL (≈ 0.288 µM) | – | – | 0.5 µg/mL (≈ 1.15 µM) |
| O=C(Nc1nnc(-c2cc(Cl)cc(Cl)c2)o1)c1ccc(SC(F)(F)F)cc1 [HSGN-218, N-(5-(3,5-dichlorophenyl)-1,3,4-oxadiazol-2-yl)-4-((trifluoromethyl)thio)benzamide] | 0.0625 µg/mL (≈ 0.144 µM) | 0.0625 µg/mL (≈ 0.144 µM) | 0.25 µg/mL (≈ 0.576 µM) | 0.25 µg/mL (≈ 0.576 µM) | 0.125 µg/mL (≈ 0.288 µM) | 0.03 µg/mL (≈ 0.0691 µM) | 0.003 µg/mL (≈ 0.00691 µM) | 0.007 µg/mL (≈ 0.0161 µM) | 0.007 µg/mL (≈ 0.0161 µM) | 0.007 µg/mL (≈ 0.0161 µM) | 0.007 µg/mL (≈ 0.0161 µM) | 0.015 µg/mL (≈ 0.0345 µM) | 0.03 µg/mL (≈ 0.0691 µM) | – | – | 0.125 µg/mL (≈ 0.288 µM) |
